In general, IC50 refers to the point on the concentration scale where inhibition reaches its midpoint.

The structures appear in SMILES notation.

Here are results for 14 compounds from US20260297081A1, “COMPOUNDS AND METHODS OF TREATING CANCERS” (Cullgen Inc., priority 2023, published 2026).

The target in one assay is CDK4 (Homo sapiens, UniProt P11802+Q16531). Kind of assay: HiBiT detection of HiBiT-tagged CDK4 protein level in MCF7 cells, 16 hours (Table 8). Particulars: MCF7 cells stably expressing HiBiT tagged target proteins; for activity at 0.01 µM: 10 nM, read-out: % CDK4 Relative Level (10 nM); for activity at 0.1 µM: 100 nM, read-out: % CDK4 Relative Level (100 nM). On the set-up: expressed in transfected cells; host or cells: MCF7. The class given is cell-based. The method, then:
HiBiT detection system quantitatively measures total amounts of HiBiT-tagged proteins using a luminescent based method. MCF7 cells stably expressing HiBiT tagged target proteins were treated with heterobifunctional compounds at indicated concentrations for 16 hours, then lysed with Nano-Glo HiBiT Lytic detection reagents.
In general terms: HiBiT is a short tag that completes a luciferase, so light tracks the accessible tagged protein.

For another assay, the system named is MCF7 cells. The assay is described as follows: Anti-proliferation (viability) of MCF7 cells (Table 7, FIG. 2B). The following applies: Homo sapiens, MCF7, MCF7 cells, 3-6 days, 10-point serial dilution; read-out: GI IC50 in MCF-7. The class given is cell-based.

CDK4, sequence (P11802 whole entry): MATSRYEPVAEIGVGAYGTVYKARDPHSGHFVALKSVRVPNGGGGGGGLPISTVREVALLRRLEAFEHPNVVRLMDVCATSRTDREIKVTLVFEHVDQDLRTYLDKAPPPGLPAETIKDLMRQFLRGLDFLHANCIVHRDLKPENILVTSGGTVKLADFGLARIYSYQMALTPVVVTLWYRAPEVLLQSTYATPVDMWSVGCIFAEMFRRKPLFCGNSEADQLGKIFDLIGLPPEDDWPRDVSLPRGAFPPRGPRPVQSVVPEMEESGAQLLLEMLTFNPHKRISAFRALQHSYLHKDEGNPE
CDK4, sequence (P24385 whole entry partner): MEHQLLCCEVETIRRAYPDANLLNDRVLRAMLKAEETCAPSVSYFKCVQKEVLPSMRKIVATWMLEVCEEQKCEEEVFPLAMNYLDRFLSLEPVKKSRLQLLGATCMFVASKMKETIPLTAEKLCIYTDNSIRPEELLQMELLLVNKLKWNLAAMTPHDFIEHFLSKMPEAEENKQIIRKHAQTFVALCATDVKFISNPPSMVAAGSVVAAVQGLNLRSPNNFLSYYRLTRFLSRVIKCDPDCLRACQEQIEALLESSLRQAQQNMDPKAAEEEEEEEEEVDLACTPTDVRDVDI
CDK4, sequence (Q16531 2-1140 limits assumed): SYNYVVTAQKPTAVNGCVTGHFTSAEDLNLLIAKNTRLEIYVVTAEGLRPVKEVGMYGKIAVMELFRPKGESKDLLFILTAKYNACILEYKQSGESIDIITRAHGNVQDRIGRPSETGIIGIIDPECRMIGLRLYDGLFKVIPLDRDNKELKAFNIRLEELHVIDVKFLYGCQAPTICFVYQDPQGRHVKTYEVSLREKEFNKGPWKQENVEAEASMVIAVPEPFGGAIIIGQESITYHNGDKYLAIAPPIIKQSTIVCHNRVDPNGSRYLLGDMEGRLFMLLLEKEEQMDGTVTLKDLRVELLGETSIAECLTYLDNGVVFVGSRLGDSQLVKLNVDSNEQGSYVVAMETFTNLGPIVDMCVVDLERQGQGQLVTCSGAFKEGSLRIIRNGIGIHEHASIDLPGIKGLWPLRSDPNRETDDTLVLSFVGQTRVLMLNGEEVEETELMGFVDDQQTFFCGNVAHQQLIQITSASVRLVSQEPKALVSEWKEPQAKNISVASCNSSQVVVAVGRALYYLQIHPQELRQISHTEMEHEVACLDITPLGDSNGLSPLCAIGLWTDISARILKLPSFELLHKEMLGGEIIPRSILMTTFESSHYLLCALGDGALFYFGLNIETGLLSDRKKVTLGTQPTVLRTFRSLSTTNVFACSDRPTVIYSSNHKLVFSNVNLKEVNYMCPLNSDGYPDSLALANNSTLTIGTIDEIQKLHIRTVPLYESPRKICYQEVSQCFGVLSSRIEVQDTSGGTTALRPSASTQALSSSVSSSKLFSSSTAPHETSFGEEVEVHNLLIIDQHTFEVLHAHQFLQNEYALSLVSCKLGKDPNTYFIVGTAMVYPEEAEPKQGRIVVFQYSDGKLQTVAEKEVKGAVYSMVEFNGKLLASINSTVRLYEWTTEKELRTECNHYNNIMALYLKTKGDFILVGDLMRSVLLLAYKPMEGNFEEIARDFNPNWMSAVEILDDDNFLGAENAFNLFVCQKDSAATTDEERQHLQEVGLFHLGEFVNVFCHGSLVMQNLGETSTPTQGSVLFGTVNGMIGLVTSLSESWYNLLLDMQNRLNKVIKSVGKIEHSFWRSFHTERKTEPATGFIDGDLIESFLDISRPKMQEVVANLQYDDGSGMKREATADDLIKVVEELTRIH

Take `CC(=O)c1c(C)c2cnc(Nc3ccc(N4CCN(C5CCN(C(=O)C67CC(Nc8nc(C)ccc8C(=O)Nc8ccc(N(C)C)nn8)(C6)C7)C5)CC4)cn3)nc2n(C2CCCC2)c1=O` (stereo not drawn) [CPD-590, 2-((3-(3-(4-(6-((6-acetyl-8-cyclopentyl-5-methyl-7-oxo-7,8-dihydropyrido[2,3-d]pyrimidin-2-yl)amino)pyridin-3-yl)piperazin-1-yl)pyrrolidine-1-carbonyl)bicyclo[1.1.1]pentan-1-yl)amino)-N-(6-(dimethylamino)pyridazin-3-yl)-6-methylnicotinamide]: on CDK4, the activity at 0.01 µM was 55 to 85% and the activity at 0.1 µM was in the range of 55 to 85%. Besides, in the assay on MCF7 cells, the IC50 is below 50 nM.
Regarding `CC(=O)c1c(C)c2cnc(Nc3ccc(N4CCN(C5CCN(C(=O)C67CC(Nc8nc(NC(C)C)ccc8C(=O)Nc8cc(C)on8)(C6)C7)C5)CC4)cn3)nc2n(C2CCCC2)c1=O` (stereo not drawn) [CPD-591, 2-((3-(3-(4-(6-((6-acetyl-8-cyclopentyl-5-methyl-7-oxo-7,8-dihydropyrido[2,3-d]pyrimidin-2-yl)amino)pyridin-3-yl)piperazin-1-yl)pyrrolidine-1-carbonyl)bicyclo[1.1.1]pentan-1-yl)amino)-6-(isopropylamino)-N-(5-methylisoxazol-3-yl)nicotinamide], on CDK4, the activity at 0.01 µM lay in the range of 55 to 85% and the activity at 0.1 µM fell in the range of 55 to 85%. Also, the IC50 in the assay on MCF7 cells was below 50 nM.
Turning to `CC(=O)c1c(C)c2cnc(Nc3ccc(CN4CCN(CC(=O)N(C)C5CC6(CC(Nc7nc(NC(C)C)ccc7C(=O)Nc7ccc(N(C)C)nn7)C6)C5)CC4)cn3)nc2n(C2CCCC2)c1=O` (stereo not drawn) [CPD-594, 2-((6-(2-(4-((6-((6-acetyl-8-cyclopentyl-5-methyl-7-oxo-7,8-dihydropyrido[2,3-d]pyrimidin-2-yl)amino)pyridin-3-yl)methyl)piperazin-1-yl)-N-methylacetamido)spiro[3.3]heptan-2-yl)amino)-N-(6-(dimethylamino)pyridazin-3-yl)-6-(isopropylamino)nicotinamide], on CDK4, the activity at 0.01 µM was in the range of 55 to 85% and the activity at 0.1 µM was in the range of 55 to 85%. Further, in the assay on MCF7 cells, the IC50 was below 50 nM.
Consider `CC(=O)c1c(C)c2cnc(Nc3ccc(CN4CCC(N(C)C(=O)C5CC6(CC(Nc7nc(NC(C)C)ccc7C(=O)Nc7ccc(N(C)C)nn7)C6)C5)CC4)cn3)nc2n(C2CCCC2)c1=O` (stereo not drawn) [CPD-595, 2-((6-((1-((6-((6-acetyl-8-cyclopentyl-5-methyl-7-oxo-7,8-dihydropyrido[2,3-d]pyrimidin-2-yl)amino)pyridin-3-yl)methyl)piperidin-4-yl)(methyl)carbamoyl)spiro[3.3]heptan-2-yl)amino)-N-(6-(dimethylamino)pyridazin-3-yl)-6-(isopropylamino)nicotinamide], for which, at CDK4, the activity at 0.01 µM was above 85% and the activity at 0.1 µM fell in the range of 55 to 85%. Further, in the assay on MCF7 cells, the IC50 was below 50 nM.
As for `CC(=O)c1c(C)c2cnc(Nc3ccc(CN4CCC(CC(=O)NC5CC6(C5)CC(Nc5nc(NC(C)C)ccc5C(=O)Nc5ccc(N(C)C)nn5)C6)C4)cn3)nc2n(C2CCCC2)c1=O` (stereo not drawn) [CPD-596, 2-((6-(2-(1-((6-((6-acetyl-8-cyclopentyl-5-methyl-7-oxo-7,8-dihydropyrido[2,3-d]pyrimidin-2-yl)amino)pyridin-3-yl)methyl)pyrrolidin-3-yl)acetamido)spiro[3.3]heptan-2-yl)amino)-N-(6-(dimethylamino)pyridazin-3-yl)-6-(isopropylamino)nicotinamide], on CDK4, the activity at 0.01 µM lay within 55 to 85% and the activity at 0.1 µM is above 85%. Further, in the assay on MCF7 cells, the IC50 was above 100 nM.
For `CCc1ccc(C(=O)Nc2ccc(N(C)C)nn2)c(N[C@H]2CC[C@H](C(=O)N3CCC(N4CCN(C5CCC(Nc6ncc7c(C)c(C(C)=O)c(=O)n(C8CCCC8)c7n6)CC5)CC4)C3)CC2)n1` (stereo partly drawn) [CPD-597, 2-((trans-4-(3-(4-(4-((6-acetyl-8-cyclopentyl-5-methyl-7-oxo-7,8-dihydropyrido[2,3-d]pyrimidin-2-yl)amino)cyclohexyl)piperazin-1-yl)pyrrolidine-1-carbonyl)cyclohexyl)amino)-N-(6-(dimethylamino)pyridazin-3-yl)-6-ethylnicotinamide] the same measures were above 85%, 55 to 85% and below 50 nM.
`CC(=O)c1c(C)c2cnc(Nc3ccc(CC4CCN(CC(=O)NC5CC6(C5)CC(Nc5nc(NC(C)C)ccc5C(=O)Nc5ccc(N(C)C)nn5)C6)CC4)cn3)nc2n(C2CCCC2)c1=O` (stereo not drawn) [CPD-599, 2-((6-(2-(4-((6-((6-acetyl-8-cyclopentyl-5-methyl-7-oxo-7,8-dihydropyrido[2,3-d]pyrimidin-2-yl)amino)pyridin-3-yl)methyl)piperidin-1-yl)acetamido)spiro[3.3]heptan-2-yl)amino)-N-(6-(dimethylamino)pyridazin-3-yl)-6-(isopropylamino)nicotinamide]: on CDK4, the activity at 0.01 µM is 55 to 85% and the activity at 0.1 µM lay in the range of 55 to 85%. In addition, in the assay with MCF7 cells, the concentration for half-maximal inhibition (IC50) was below 50 nM.
`CNc1ccc(C(=O)Nc2ccc(N(C)C)nn2)c(NCCC(=O)N2CCN(Cc3ccc(Nc4ncc(F)c(-c5cc(F)c6nc(C)n(C(C)C)c6c5)n4)nc3)CC2)n1` [CPD-600, N-(6-(dimethylamino)pyridazin-3-yl)-2-((3-(4-((6-((5-fluoro-4-(4-fluoro-1-isopropyl-2-methyl-1H-benzo[d]imidazol-6-yl)pyrimidin-2-yl)amino)pyridin-3-yl)methyl)piperazin-1-yl)-3-oxopropyl)amino)-6-(methylamino)nicotinamide]: on CDK4, the activity at 0.01 µM lay in the range of 55 to 85% and the activity at 0.1 µM was in the range of 55 to 85%. Besides, the IC50 with MCF7 cells is above 100 nM.
Consider `CNc1ccc(C(=O)Nc2ccc(N(C)C)nn2)c(NCCCC(=O)N2CCN(Cc3ccc(Nc4ncc(F)c(-c5cc(F)c6nc(C)n(C(C)C)c6c5)n4)nc3)CC2)n1` [CPD-601, N-(6-(dimethylamino)pyridazin-3-yl)-2-((4-(4-((6-((5-fluoro-4-(4-fluoro-1-isopropyl-2-methyl-1H-benzo[d]imidazol-6-yl)pyrimidin-2-yl)amino)pyridin-3-yl)methyl)piperazin-1-yl)-4-oxobutyl)amino)-6-(methylamino)nicotinamide], for which, on CDK4, the activity at 0.01 µM lay in the range of 55 to 85% and the activity at 0.1 µM lay in the range of 55 to 85%. For the same compound, the IC50 with MCF7 cells is above 100 nM.
As to `CNc1ccc(C(=O)Nc2ccc(N(C)C)nn2)c(NCCCCC(=O)N2CCN(Cc3ccc(Nc4ncc(F)c(-c5cc(F)c6nc(C)n(C(C)C)c6c5)n4)nc3)CC2)n1` [CPD-602, N-(6-(dimethylamino)pyridazin-3-yl)-2-((5-(4-((6-((5-fluoro-4-(4-fluoro-1-isopropyl-2-methyl-1H-benzo[d]imidazol-6-yl)pyrimidin-2-yl)amino)pyridin-3-yl)methyl)piperazin-1-yl)-5-oxopentyl)amino)-6-(methylamino)nicotinamide], on CDK4, the activity at 0.01 µM fell in the range of 55 to 85% and the activity at 0.1 µM lay within 55 to 85%. The IC50 in the assay on MCF7 cells was above 100 nM.
Turning to `CNc1ccc(C(=O)Nc2ccc(N(C)C)nn2)c(NCCCCCC(=O)N2CCN(Cc3ccc(Nc4ncc(F)c(-c5cc(F)c6nc(C)n(C(C)C)c6c5)n4)nc3)CC2)n1` [CPD-603, N-(6-(dimethylamino)pyridazin-3-yl)-2-((6-(4-((6-((5-fluoro-4-(4-fluoro-1-isopropyl-2-methyl-1H-benzo[d]imidazol-6-yl)pyrimidin-2-yl)amino)pyridin-3-yl)methyl)piperazin-1-yl)-6-oxohexyl)amino)-6-(methylamino)nicotinamide], at CDK4, the activity at 0.01 µM was in the range of 55 to 85% and the activity at 0.1 µM was in the range of 55 to 85%. In addition, the IC50 in the assay on MCF7 cells is above 100 nM.
For the compound `CNc1ccc(C(=O)Nc2ccc(N(C)C)nn2)c(NCCOCCOCCC(=O)N2CCN(Cc3ccc(Nc4ncc(F)c(-c5cc(F)c6nc(C)n(C(C)C)c6c5)n4)nc3)CC2)n1` [CPD-607, N-(6-(dimethylamino)pyridazin-3-yl)-2-((2-(2-(3-(4-((6-((5-fluoro-4-(4-fluoro-1-isopropyl-2-methyl-1H-benzo[d]imidazol-6-yl)pyrimidin-2-yl)amino)pyridin-3-yl)methyl)piperazin-1-yl)-3-oxopropoxy)ethoxy)ethyl)amino)-6-(methylamino)nicotinamide], on CDK4, the activity at 0.01 µM was above 85% and the activity at 0.1 µM is above 85%. Also, the IC50 in the assay with MCF7 cells was above 100 nM.
As for `CNc1ccc(C(=O)Nc2ccc(N(C)C)nn2)c(NCCNC(=O)CN2CCN(Cc3ccc(Nc4ncc(F)c(-c5cc(F)c6nc(C)n(C(C)C)c6c5)n4)nc3)CC2)n1` [CPD-608, N-(6-(dimethylamino)pyridazin-3-yl)-2-((2-(2-(4-((6-((5-fluoro-4-(4-fluoro-1-isopropyl-2-methyl-1H-benzo[d]imidazol-6-yl)pyrimidin-2-yl)amino)pyridin-3-yl)methyl)piperazin-1-yl)acetamido)ethyl)amino)-6-(methylamino)nicotinamide], at CDK4, the activity at 0.01 µM was above 85% and the activity at 0.1 µM was 55 to 85%. In the assay with MCF7 cells, the IC50 was above 100 nM.
For the compound `CNc1ccc(C(=O)Nc2ccc(N(C)C)nn2)c(NCCCC(=O)N2CCN(c3ccc(Nc4ncc5cc(C(=O)N(C)C)n(C6CCCC6)c5n4)nc3)CC2)n1` [CPD-617, 7-cyclopentyl-2-((5-(4-(4-((3-((6-(dimethylamino)pyridazin-3-yl)carbamoyl)-6-(methylamino)pyridin-2-yl)amino)butanoyl)piperazin-1-yl)pyridin-2-yl)amino)-N,N-dimethyl-7H-pyrrolo[2,3-d]pyrimidine-6-carboxamide], at CDK4, the activity at 0.01 µM was above 85% and the activity at 0.1 µM is above 85%. In addition, the IC50 with MCF7 cells was above 100 nM.
